Source: patent US20230255972A1, “PYRIMIDINE COMPOUND-CONTAINING COMBINATION TO BE USED IN TUMOR TREATMENT” (TAIHO PHARMACEUTICAL CO., LTD., priority 2020, published 2023)

Assays:
[1] = test system: MCF10A_EGFR/H773_V774insNPH cells; test: Growth inhibitory activity against MCF10A_EGFR/H773_V774insNPH; format: cell-based; conditions: Homo sapiens, 72 h; 3 days; read-out: Cell growth inhibitory activity GI 50 value, MCF10A_EGFR/H773_V774insNPH cell
Experimental: Test Example 7 Measurement of Growth Inhibitory Activity Against EGFR Overexpressing Cell Line and Exon 20 Insertion Mutant EGFR Expressing Cell Line
Growth inhibitory activity against an EGFR overexpressing cell line and an exon 20 insertion mutant EGFR expressing cell line was evaluated using MDA-MB-468 cells (ATCC) as an EGFR overexpressing human breast cancer cell line; NCI-H1975 cells (ATCC) as L858R and T790M mutant EGFR-positive human lung cancer cells; and MCF10A_EGFR cells, MCF10A_EGFR/V769_D770insASV cells, MCF10A_EGFR/D770_N771insSVD cells, and MCF10A_EGFR/H773_V774insNPH cells (Fukushima Medical University) which were cells obtained by introducing the EGFR gene (WT, […], D770_N771insSVD mutant, H773_V774insNPH mutant) into MCF10A cells as human normal mammary gland cells.
The MDA-MB-468 cells were suspended in Leibovitz's L-15 medium containing 10% inactivated fetal bovine serum. The NCI-H1975 cells were suspended in RPMI-1640 medium containing 10% inactivated fetal bovine serum. The MCF10A_EGFR cells, the MCF10A_EGFR/V769_D770insASV cells, the MCF10A_EGFR/D770_N771insSVD cells, or the MCF10A_EGFR/H773_V774insNPH cells were suspended in DMEM/Ham's F-12 medium (containing L-glutamine, phenol red, HEPES, and sodium pyruvate) containing 10 μg/mL insulin, 500 ng/mL hydrocortisone, 5 μmol/L forskolin, and 5% inactivated horse serum in terms of their final concentrations. Each cell suspension was seeded in each well of a 96-well flat-bottom plate such that the number of cells per well was 500, and was then cultured in a carbon dioxide gas-free culture vessel for the MDA-MB-468 cells and in a 5% carbon dioxide gas-containing culture vessel for the other cells at 37° C. for 1 day. The pyrimidine compound of the present invention was prepared at 1 mM in DMSO and then diluted 1/200 with a medium to prepare a 5 μM solution. […]
The cells at the start of the culture (day 0) and after the culture (day 3) were counted using CellTiter-Glo(R) 2.0 Reagent (Promega Corp.) according to the protocol recommended by the manufacturer. […]

[2] = molecular target: T1, human HER2 exon 20 insertion mutant (A775_G776insYVMA) protein (Homo sapiens, UniProt P04626, INS775YVMA); test: Inhibitory action (in vitro) against HER2 exon 20 insertion mutant phosphorylation activity; format: biochemical; conditions: pre-incubated 30 minutes, ATP 200 μM, 25°C, 220 minutes; read-out: HER2ex20insYVMA inhibitory activity IC50 value
T1 construct: purchased SignalChem
From the text: Test Example 2 Measurement of Inhibitory Action (In Vitro) Against HER2 Exon 20 Insertion Mutant (HER2ex20insYVMA) Phosphorylation Activity
In order to determine conditions for a method of measuring the in vitro inhibitory activity of a compound against HER2 exon 20 insertion mutant phosphorylation activity, as in the case of HER2, ProfilerPro Peptide 22 was used as a substrate. A purified recombinant human HER2 exon 20 insertion mutant (A775_G776insYVMA) protein was purchased from SignalChem. Upon the measurement of the inhibitory activity of the compound, first, the pyrimidine compound of the present invention was diluted stepwise with dimethyl sulfoxide (DMSO). Subsequently, the HER2 exon 20 insertion mutant protein and the pyrimidine compound of the present invention in DMSO solution (final concentration of DMSO: 5%) were added into a buffer for the kinase reaction (13.5 mM Tris (pH 7.5), 2 mM dithiothreitol, and 0.009% Tween 20), and the obtained mixture was then pre-incubated at 25° C. for 30 minutes. Thereafter, the substrate peptide (final concentration: 1 μM), manganese chloride (final concentration: 25 mM), magnesium chloride (final concentration: 20 mM), and ATP (final concentration: 200 μM) were added into the reaction mixture, and the thus obtained mixture was then incubated at 25° C. for 220 minutes, so that the kinase reaction was carried out. To the reaction solution, EDTA was added to a final concentration of 30 mM, so as to terminate the reaction. Finally, using LabChip (registered trademark) EZ Reader II (PerkinElmer), an unphosphorylated substrate peptide (S) and a phosphorylated peptide (P) were separated and detected according to microchannel capillary electrophoresis.

T1 sequence (P04626 with tags, fused parts or gaps INS775YVMA limits assumed): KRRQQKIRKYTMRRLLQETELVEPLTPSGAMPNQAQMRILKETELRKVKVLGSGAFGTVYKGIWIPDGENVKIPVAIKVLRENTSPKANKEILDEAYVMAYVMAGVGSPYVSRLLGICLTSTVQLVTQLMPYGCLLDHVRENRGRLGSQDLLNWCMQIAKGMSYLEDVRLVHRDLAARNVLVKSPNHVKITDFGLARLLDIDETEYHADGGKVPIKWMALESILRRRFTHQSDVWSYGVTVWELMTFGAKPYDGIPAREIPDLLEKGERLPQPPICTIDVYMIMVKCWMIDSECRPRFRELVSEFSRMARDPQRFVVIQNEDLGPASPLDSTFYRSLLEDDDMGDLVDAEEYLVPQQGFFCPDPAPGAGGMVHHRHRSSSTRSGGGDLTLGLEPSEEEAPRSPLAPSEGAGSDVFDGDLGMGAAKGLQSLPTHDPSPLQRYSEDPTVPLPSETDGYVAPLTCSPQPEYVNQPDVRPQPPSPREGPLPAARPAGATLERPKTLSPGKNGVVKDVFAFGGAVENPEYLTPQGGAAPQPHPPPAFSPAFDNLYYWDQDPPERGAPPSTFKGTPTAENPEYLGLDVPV

Compound	GI50 [1]	IC50 [2]
C=CC(=O)N1C[C@H](n2c(C#CC)c(C(=O)N[C@H](C)c3ccccc3)c3c(N)ncnc32)C[C@@H]1C [Example 2, 7-((3R,5S)-1-acryloyl-5-methylpyrrolidin-3-yl)-4-amino-N—((R)-1-phenylethyl)-6-(prop-1-yn-1-yl)-7H-pyrrolo[2,3-d]pyrimidine-5-carboxamide]	16 nM	< 0.3 nM
C=CC(=O)N1C[C@H](n2c(C#CC3CC3)c(C(=O)N[C@H](C)c3ccccc3)c3c(N)ncnc32)C[C@@H]1C [Example 11, 7-((3R,5S)-1-acryloyl-5-methylpyrrolidin-3-yl)-4-amino-6-(cyclopropylethynyl)-N—((R)-1-phenylethyl)-7H-pyrrolo[2,3-d]pyrimidine-5-carboxamide]	18 nM	< 0.3 nM
C=CC(=O)N1C[C@H](n2c(C#CC(C)(C)C)c(C(=O)N[C@H](C)c3ccccc3)c3c(N)ncnc32)C[C@@H]1C [Example 12, 7-((3R,5S)-1-acryloyl-5-methylpyrrolidin-3-yl)-4-amino-6-(3,3-dimethylbut-1-yn-1-yl)-N—((R)-1-phenylethyl)-7H-pyrrolo[2,3-d]pyrimidine-5-carboxamide]	50 nM	0.39 nM
